# Test results as given in patent US8748426B2, “Inhibitors of diacylglycerol acyl transferase” (Piramal Enterprises Limited, priority 2009, dated 2014).
# Molecular target: T1, hDGAT1 (Homo sapiens, UniProt O75907)
# T1 sequence (O75907 1-488): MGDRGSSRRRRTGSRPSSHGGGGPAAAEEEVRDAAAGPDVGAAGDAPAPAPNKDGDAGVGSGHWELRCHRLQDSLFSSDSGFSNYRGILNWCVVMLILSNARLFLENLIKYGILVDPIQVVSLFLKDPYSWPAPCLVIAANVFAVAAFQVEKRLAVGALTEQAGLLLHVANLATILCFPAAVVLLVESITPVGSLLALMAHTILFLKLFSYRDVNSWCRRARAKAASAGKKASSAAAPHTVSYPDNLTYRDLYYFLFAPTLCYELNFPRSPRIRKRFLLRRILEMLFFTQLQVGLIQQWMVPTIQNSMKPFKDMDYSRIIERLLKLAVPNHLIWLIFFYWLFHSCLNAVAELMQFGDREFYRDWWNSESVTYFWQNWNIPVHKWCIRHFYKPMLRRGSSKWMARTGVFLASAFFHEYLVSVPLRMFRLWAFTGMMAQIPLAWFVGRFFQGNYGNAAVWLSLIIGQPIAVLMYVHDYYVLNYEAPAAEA
# Experiment: In-vitro DGAT1 assay (14C oleoyl CoA, hDGAT1 microsomes from Sf9 cells)
# Settings: for inhibition at 1 µM: read-out: % Inhibition of hDGAT1; for % Inhibition of hDGAT1: at 1 μM
SMILES,inhibition at 1 µM [%],% Inhibition of hDGAT1
"CC(C)[C@@H](C(=O)O)N1Cc2ccc(-c3ccc(NC(=O)c4ccc(-c5ccccc5)cc4)cc3C(F)(F)F)cc2C1=O [Example 426, (S)-2-(6-(4-Biphenyl-4-ylcarboxamido-2-(trifluoromethyl)phenyl)-1-oxoisoindolin-2-yl)-3-methylbutanoic acid]",,+ (10-50% Inhibition)
"O=C(Nc1ccc(-c2ccc3c(c2)C(=O)N([C@H]2CC[C@H](C(=O)O)CC2)C3)cc1)c1ccc(Cl)cc1 [Example 561, (1r,4r)-4-(6-(4-(4-Chlorobenzamido)phenyl)-1-oxoisoindolin-2-yl)cyclohexane carboxylic acid]",,+ (10-50% Inhibition)
"O=C(O)CN1Cc2cc(-c3ccc(NC(=O)Nc4cccc(C(F)(F)F)c4)cc3)ccc2C1=O [Example 364, 2-(1-Oxo-5-(4-(3-(3-(trifluoromethyl)phenyl)ureido)phenyl)isoindolin-2-yl)acetic acid]",10 to 50,
"Cc1ccc(NC(=O)Nc2ccc(-c3ccc4c(c3)C(=O)N([C@H](C(=O)O)C(C)C)C4)nc2)cc1C [Example 398, (S)-2-(6-(5-(3-(3,4-Dimethylphenyl)ureido)pyridin-2-yl)-1-oxoisoindolin-2-yl)-3-methylbutanoic acid]",> 50,
"CC(C)[C@@H](C(=O)O)N1Cc2cc(-c3ccc(NC(=O)NC4CCCCC4)cc3)ccc2C1=O [Example 235, (S)-2-(5-(4-(3-Cyclohexylureido)phenyl)-1-oxoisoindolin-2-yl)-3-methyl butanoic acid]",10 to 50,
"C[C@@H](C(=O)O)N1Cc2cc(-c3ccc(NC(=O)Nc4cccc(C(F)(F)F)c4)cc3)ccc2C1=O [Example 367, (S)-2-(1-Oxo-5-(4-(3-(3-(trifluoromethyl)phenyl)ureido)phenyl)isoindolin-2-yl)propanoic acid]",> 50,
"CC(C)(C(=O)O)N1Cc2ccc(-c3ccc(NC(=O)Nc4cccc(C(F)(F)F)c4)cc3)cc2C1=O [Example 340, 2-Methyl-2-(1-oxo-6-(4-(3-(3-(trifluoromethyl)phenyl)ureido)phenyl)isoindolin-2-yl)propanoic acid]",10 to 50,
"O=C(Nc1ccc(-c2ccc3c(c2)C(=O)N(C2(C(=O)O)CC2)C3)cc1)c1ccc(-c2ccccc2)cc1 [Example 586, 1-(6-(4-([1,1′-Biphenyl]-4-ylcarboxamido)phenyl)-1-oxoisoindolin-2-yl)cyclopropanecarboxylic acid]",,++ (>50% Inhibition)
"CC(C)[C@@H](C(=O)O)N1Cc2ccc(-c3ccc(NC(=O)c4ccc(C(C)(C)C)cc4)cc3C(F)(F)F)cc2C1=O [Example 424, (S)-2-(6-(4-(4-tert-Butylbenzamido)-2-(trifluoromethyl)phenyl)-1-oxoisoindolin-2-yl)-3-methylbutanoic acid]",10 to 50,
"O=C(Nc1ccc(-c2ccc3c(c2)C(=O)N([C@@H]2CCC[C@@H]2C(=O)O)C3)cc1)c1ccc(-c2ccccc2)cc1 [Example 594, (1S,2R)-2-(6-(4-([1,1′-Biphenyl]-4-ylcarboxamido)phenyl)-1-oxoisoindolin-2-yl)cyclopentanecarboxylic acid]",,++ (>50% Inhibition)
"O=C(Nc1ccc(-c2ccc3c(c2)C(=O)N(C2(C(=O)O)CCCC2)C3)cc1)c1ccc(Cl)cc1 [Example 533, 1-(6-(4-(4-Chlorobenzamido)phenyl)-1-oxoisoindolin-2-yl)cyclopentane carboxylic acid]",> 50,
"CCCCOc1ccc(C(=O)Nc2ccc(-c3ccc4c(c3)C(=O)N([C@H](C(=O)O)C(C)C)C4)c(C)c2)cc1 [Example 472, (S)-2-(6-(4-(4-Butoxybenzamido)-2-methylphenyl)-1-oxoisoindolin-2-yl)-3-methylbutanoic acid]",> 50,

# Continued, in another order:
inhibition at 1 µM [%],SMILES,% Inhibition of hDGAT1
> 50,"Cc1cc(NC(=O)c2ccc(C(C)(C)C)cc2)ccc1-c1ccc2c(c1)C(=O)N([C@H](C(=O)O)C(C)C)C2 [Example 468, (S)-2-(6-(4-(4-tert-Butylbenzamido)-2-methylphenyl)-1-oxoisoindolin-2-yl)-3-methylbutanoic acid]",
> 50,"CCCCCc1ccc(C(=O)Nc2ccc(-c3ccc4c(c3)C(=O)N([C@H](C(=O)O)C(C)C)C4)cc2F)cc1 [Example 446, (S)-2-(6-(3-Fluoro-4-(4-pentylbenzamido)phenyl)-1-oxoisoindolin-2-yl)-3-methylbutanoic acid]",
> 50,"CC(C)[C@@H](C(=O)O)N1Cc2cc(-c3ccc(NC(=O)c4ccc(Cl)cc4)cc3)ccc2C1=O [Example 321, (S)-2-(5-(4-(4-Chlorobenzamido)phenyl)-1-oxoisoindolin-2-yl)-3-methylbutanoic acid]",
> 50,"CC(C)[C@@H](C(=O)O)N1Cc2ccc(-c3ccc(NC(=S)Nc4cccc(C(F)(F)F)c4)cc3)cc2C1=O [Example 76, (S)-3-Methyl-2-(1-oxo-6-(4-(3-(3-(trifluoromethyl)phenyl)thioureido)phenyl)isoindolin-2-yl)butanoic acid]",
10 to 50,"CC(C)[C@@H](C(=O)O)N1Cc2ccc(-c3ccc(NS(=O)(=O)c4ccc(C#N)cc4)cc3)cc2C1=O [Example 80, (S)-2-(6-(4-(4-Cyanophenylsulfonamido)phenyl)-1-oxoisoindolin-2-yl)-3-methyl butanoic acid]",
> 50,"CCCCCCCCCc1ccc(C(=O)Nc2ccc(-c3ccc4c(c3)C(=O)N([C@H](C(=O)O)C(C)C)C4)cc2)cc1 [Example 186, (S)-3-Methyl-2-(6-(4-(4-nonylbenzamido)phenyl)-1-oxoisoindolin-2-yl)butanoic acid]",
10 to 50,"CC(C)[C@@H](C(=O)O)N1Cc2ccc(-c3ccc(NC(=S)Nc4ccc(Cl)cc4)cc3)cc2C1=O [Example 62, (S)-2-(6-(4-(3-(4-Chlorophenyl)thioureido)phenyl)-1-oxoisoindolin-2-yl)-3-methyl butanoic acid]",
10 to 50,"CC(C)[C@H](C(=O)O)N1Cc2cc(-c3ccc(NC(=O)Nc4cccc(C(F)(F)F)c4)cc3)ccc2C1=O [Example 361, (R)-3-Methyl-2-(1-oxo-5-(4-(3-(3-(trifluoromethyl)phenyl)ureido)phenyl)isoindolin-2-yl)butanoic acid]",
10 to 50,"CC(C)[C@@H](C(=O)O)N1Cc2cc(-c3ccc(NC(=S)Nc4cccc(Cl)c4)cc3)ccc2C1=O [Example 267, (S)-2-(5-(4-(3-(3-Chlorophenyl)thioureido)phenyl)-1-oxoisoindolin-2-yl)-3-methylbutanoic acid]",
10 to 50,"CC(C)[C@@H](C(=O)O)N1Cc2ccc(-c3ccc(NC(=O)c4ccccc4)cc3)cc2C1=O [Example 98, (S)-2-(6-(4-Benzamidophenyl)-1-oxoisoindolin-2-yl)-3-methylbutanoic acid]",
> 50,"CCCCCCc1ccc(C(=O)Nc2ccc(-c3ccc4c(c3)C(=O)N([C@H](C(=O)O)C(C)C)C4)cc2)cc1 [Example 182, (S)-2-(6-(4-(4-Hexylbenzamido)phenyl)-1-oxoisoindolin-2-yl)-3-methylbutanoic acid]",
10 to 50,"CC(C)[C@@H](C(=O)O)N1Cc2ccc(-c3ccc(NC(=O)c4ccccc4Cl)cc3)cc2C1=O [Example 132, (S)-2-(6-(4-(2-Chlorobenzamido)phenyl)-1-oxoisoindolin-2-yl)-3-methyl butanoic acid]",
> 50,"COc1ccc(NC(=S)Nc2ccc(-c3ccc4c(c3)C(=O)N([C@H](C(=O)O)C(C)C)C4)cc2)cc1 [Example 58, (S)-2-(6-(4-(3-(4-Methoxyphenyl)thioureido)phenyl)-1-oxoisoindolin-2-yl)-3-methylbutanoic acid]",
> 50,"COc1ccccc1C(=O)Nc1ccc(-c2ccc3c(c2)C(=O)N([C@H](C(=O)O)C(C)C)C3)cc1 [Example 160, (S)-2-(6-(4-(2-Methoxybenzamido)phenyl)-1-oxoisoindolin-2-yl)-3-methyl butanoic acid]",
> 50,"CCCCCCCCCCc1ccc(C(=O)Nc2ccc(-c3ccc4c(c3)C(=O)N([C@H](C(=O)O)C(C)C)C4)cc2)cc1 [Example 188, (S)-2-(6-(4-(4-Decylbenzamido)phenyl)-1-oxoisoindolin-2-yl)-3-methyl butanoic acid]",
> 50,"CC(C)(C(=O)O)N1Cc2ccc(-c3ccc(NC(=O)c4ccc(Cl)cc4)cc3)cc2C1=O [Example 521, 2-(6-(4-(4-Chlorobenzamido)phenyl)-1-oxoisoindolin-2-yl)-2-methylpropanoic acid]",
> 50,"COc1ccc(NC(=O)Nc2ccc(-c3ccc4c(c3)CN([C@H](C(=O)O)C(C)C)C4=O)cc2)cc1 [Example 249, (S)-2-(5-(4-(3-(4-Methoxyphenyl)ureido)phenyl)-1-oxoisoindolin-2-yl)-3-methylbutanoic acid]",
> 50,"Cc1cccc(NC(=O)Nc2ccc(-c3ccc4c(c3)CN([C@H](C(=O)O)C(C)C)C4=O)cc2)c1 [Example 243, (S)-3-Methyl-2-(1-oxo-5-(4-(3-m-tolylureido)phenyl)isoindolin-2-yl)butanoic acid]",
10 to 50,"CC(C)[C@@H](C(=O)O)N1Cc2ccc(-c3ccc(NS(=O)(=O)c4ccc(C(F)(F)F)cc4)cc3)cc2C1=O [Example 92, (S)-3-Methyl-2-(1-oxo-6-(4-(4-(trifluoromethyl)phenylsulfonamido)phenyl)isoindolin-2-yl)butanoic acid]",
